Values joined by “and” are separate entries in the source; they are usually repeats but may differ in a detail not shown here. Equal entries are not always repeated.
How the values were obtained:
Rad51 [1] = experiment: RT-qPCR, Rad51 mRNA expression; assay type: cell-based; conditions: 10 nM, 3 cell lines tested
Procedure: (§1) Assessment of mRNA expression by RT-qPCR. Total RNA was extracted from EWS:Fli1^+ cell cultures (TC-71, A673, and RD-ES) exposed to 10 nM of MithA/MANP (final concentration) or DMSO, (0.01% v/v) vehicle and blank polymer for 24 hours by the RNeasy technique with RNeasy columns with on-column DNAse I digestion (Qiagen, Valencia, Calif.) according to the manufacturer's instructions. The concentration and purity of the extracts were determined by UV absorbance at 230/260/280/320 nm wavelengths using a Tecan Infinite M200 spectrophotometer. Template cDNA was synthesized from […] of RNA extract by reverse-transcription using the Quantitect RT kit (Qiagen). Oligonucleotide primer sequences and more detailed information described in Supplemental Table S4). RT-PCR was performed using Quantitect SYBR-green qPCR reagents in a Mastercycler ep Realplex2 instrument (Eppendorf AG, Hamburg, Germany). […] Relative quantification of mRNA expression between MithA/MANP or vehicle/blank polymer treated cells were semi-quantitatively calculated by comparing the average threshold cycle (Ct) for the treated samples to the average Ct for untreated samples (Vehicle or blank polymer. Amplification efficiency was determined for each primer set, and the Pfaffl equation to determine relative fold change in gene expression. Beta-actin was used as the housekeeping gene for normalization.

[2] = cited from earlier work
EWS:Fli1+ cells = conditions: previous study; read-out: average IC50 in EWS:Fli1 cell lines, previous study; cited from earlier work
Rad51 [3] = experiment: Western blotting, Rad51 protein expression; assay type: cell-based; conditions: 10 nM, 24 hours
Procedure: Western Blotting. Expression Western blotting was performed to assess the expression of NR0B1 (EWS:Fli1 target gene) and Rad 51 (DNA homologous recombination repair HRR) at protein level as provisory described in Lin et al 2021. Briefly, cells were grown to ˜70% confluence and exposed to 10 nM of MithA/MANP (final concentration) or DMSO, (0.01% v/v) vehicle and blank polymer for 24 hours. Lysates were collected in cold RIPA lysis buffer supplemented with 1×HALT protease/phosphatase inhibitor cocktail (Thermo Scientific) and clarified by centrifugation. Protein concentration of the supernatant was determined by BCA assay (Thermo Scientific), and then diluted in 4× loading buffer (Licor Inc., Lincoln, Nebr.) containing 1× NuPAGE reducing agent (Life Technologies). Prior to electrophoresis, samples were denatured by incubating at 70° C. for 10 minutes. Samples were then resolved (25 μg/lane) on 4-20% gradient SDS-PAGE gels and transferred to low-fluorescence PVDF membranes (Bio-Rad Inc., Hercules Calif.). Transfer efficiency and equivalence of total protein load was assessed using Revert 700 Total Protein Stain kits (Licor Inc). Membranes were then washed, blocked in Odyssey Blocking Buffer (PBS) (Licor Inc), and incubated with primary antibodies (Table S4.3 above) overnight at 4° C. diluted in blocking buffer.

Female C57BL/6J mice [4] = experiment: In vivo toxicity: serum chemistry
Procedure: (§2) In vivo toxicity of MithA and MANP. Cohorts of n=6-7 C57BL/6J females, 8-10 wko were randomized to receive either intravenous or intraperitoneal administration of saline control vehicle, blank polymer, MithA, or MANP as described in TABLES 2A and 2B. Body weight loss exceeding 20%, death, morbidity, changes in behavior, and any other sign of local or systemic toxicity were recorded.
For serum chemistry blood was collected through a 20G needle 24 h after the last dose, by cardiac puncture under isoflurane anesthesia. The blood was distributed to EDTA-coated (100 uL) or clot-activator (>200 uL) Multivette-600 tubes (Sarstedt, Newton, N.C.) respectively for hematology and serum chemistry analyses. For serum isolation, blood allowed to clot at room temperature for at least 20 minutes, centrifuged 10 kG for 10 minutes, aliquoted and frozen at −80° C. until analysis on a VetScan VS2 instrument (Zoetis, Parsippany-Troy Hills, N.J.) with Zoetis Preventive Profile Plus panel for chemistry.

NR0B1 = experiment: RT-qPCR, NR0B1 mRNA expression; assay type: cell-based; conditions: 10 nM, 3 cell lines tested
Procedure: as §1

Female C57BL/6J mice [5] = experiment: In vivo toxicity of MithA and MANP: body weight, death, morbidity
Procedure: as §2

A673 = experiment: XTT cell viability assay, A673; assay type: cell-based; conditions: Homo sapiens, A673, 72 h, read-out: Viability IC50
Procedure: Cell viability assays. For viability assays, four EWS:Fli1 fusion tumor cell lines (RD-ES, SK-ES-1, A673, and TC-71), one human embryonic kidney cell line (293.T), one ES tumor cell line with ERG fusion (CHLA-25), one fetal kidney cell line (HEK293.T), one hepatoblastoma cell line (HepG2), one chronic myeloid leukemia (MEG-01), and one acute monocytic leukemia (THP-1) cell line were plated at 5000 cells/well in 100 μL growth media in 96-well plates. After overnight incubation, 50 μL of growth media containing mithramycin A (MithA) (Cayman Chemical, Ann Arbor, Mi. Item Number 11434) or boronic acid-conjugated nano-MithA (MANP) (0.12 nM to 500 nM, final) or dimethyl sulfoxide (DMSO, 0.01% v/v) vehicle was added to the wells, and cell viability assays were performed 72 hours later. The cells were incubated with the activated-XTT solution (mixture of 2% final concentration of activation reagent with the XTT reagent) from ATCC (Catalog Number 30-1011K, XTT Cell Proliferation Assay Kit) for 3 hours prior to recording absorbance. The cell viability was determined by measuring the absorbance wavelength at 475 nm and reference wavelength at 650 nm on an Infinite M200 plate reader (Tecan Group, Ltd. Mannedorf, Switzerland). […]

[6] = 5x2 mg/kg i.v., compared to saline vehicle
[7] = 5x4 mg/kg i.p., relative to saline vehicle
[8] = single i.v. 4 mg/kg, within 48 hours

## CO[C@H](C(=O)[C@@H](O)[C@@H](C)O)[C@@H]1Cc2cc3cc(O[C@H]4C[C@@H](O[C@H]5C[C@@H](O)[C@H](O)[C@@H](C)O5)[C@H](O)[C@@H](C)O4)c(C)c(O)c3c(O)c2C(=O)[C@H]1O[C@H]1C[C@@H](O[C@H]2C[C@@H](O[C@H]3C[C@](C)(O)[C@H](O)[C@@H](C)O3)[C@@H](O)[C@@H](C)O2)[C@H](O)[C@@H](C)O1 [MithA, (2S,3S)-2-[(2S,4R,5R,6R)-4-[(2S,4R,5S,6R)-4-[(2S,4S,5R,6R)-4,5-dihydroxy-4,6-dimethyloxan-2-yl]oxy-5-hydroxy-6-methyloxan-2-yl]oxy-5-hydroxy-6-methyloxan-2-yl]oxy-3-[(1 S,3S,4R)-3,4-dihydroxy-1-methoxy-2-oxopentyl]-6-[(2S,4R,5R,6R)-4-[(2S,4R,5S,6R)-4,5-dihydroxy-6-methyloxan-2-yl]oxy-5-hydroxy-6-methyloxan-2-yl]oxy-8,9-dihydroxy-7-methyl-3,4-dihydro-2H-anthracen-1-one]
Rad51 [1]
  Rad51 mRNA expression: unable to detect significant inhibition
[2]; dose escalation, single-agent therapy
  patients with reversible grade 4 ALT/AST elevation: 2/8 and 2 out of 8
[2]; level hypothesized to inhibit EWS:Fli1 activity, not reached before adverse effects
  serum level reached: < 50 nM
EWS:Fli1+ cells
  IC50: 12 nM
Rad51 [3]
  Rad51 protein expression: Down-regulated
Female C57BL/6J mice [4]; 5 consecutive days i.p. 1 mg/kg, vs saline (p=0.005)
  glucose level: decreased
Female C57BL/6J mice [4]; 5x2 mg/kg (eq.) i.v. alternating days
  liver toxicity: led to hepatoxicity
Female C57BL/6J mice [4]; [6]
  decrease in glucose serum level: 1.9 fold
  increase in ALT: 20.9 fold
  increase in AST: 4.1 fold
  increase in total bilirubin: 1.5 fold
Female C57BL/6J mice [4]; [7]
  decrease in glucose level: 1.9 fold
  increase of alanine transaminase (ALT): 16.9 fold
  increase of aspartate aminotransferase (AST): 5.4 fold
Female C57BL/6J mice [4]; five i.v. injections on alternating days, any treatment group
  kidney injury or electrolyte imbalance: no evidence of kidney injury or electrolyte imbalance
Female C57BL/6J mice [4]; single i.p. 4 mg/kg
  changes in serum chemistry: no significant changes
Female C57BL/6J mice [4]; single i.v. 4 mg/kg, in comparison to equivalent dose of MANP (p=0.0381)
  increase in ALT liver enzyme level: 1.7 fold
NR0B1
  NR0B1 mRNA expression: unable to detect significant inhibition
Female C57BL/6J mice [5]; 5 consecutive days i.p. 1 mg/kg
  toxicity by serum chemistry or hematology studies: no significant toxicity
Female C57BL/6J mice [5]; 5 consecutive days i.p. 4 mg/kg
  death: One mouse died
Female C57BL/6J mice [5]; 5 consecutive days i.p. 4 mg/kg (p=0.0016)
  body weight: progressive and significant body weight loss
Female C57BL/6J mice [5]; 5 consecutive days i.p. 4 mg/kg, day of harvest (day 6)
  morbidity: one mouse found to be moribund
Female C57BL/6J mice [5]; five i.v. injections on alternating days, 1 mg/kg or 2 mg/kg
  outward signs of morbidity or toxicity: no obvious outward signs of morbidity or toxicity
Female C57BL/6J mice [5]; single i.p. injection, 1 mg/kg and 4 mg/kg, vs saline vehicle
  body weight: no significant weight loss
Female C57BL/6J mice [5]; single i.p. injection, 1 or 2 mg/kg
  toxicity by serum chemistry or hematology assays: did not cause any toxicity
Female C57BL/6J mice [5]; single i.v. 4 mg/kg, in comparison to equivalent dose of MANP (p=0.048)
  body weight: significant decrease
Female C57BL/6J mice [5]; [8]
  death rate: 75%
  mice that died: 6/8
A673
  IC50: 12.4 nM

Reference: patent publication US20230233695A1, “MITHRAMYCIN A NANOPARTICLES FOR CANCER TREATMENT” (priority 2021, published 2023)
